# Measurements taken from PMC7352759, “S(+)-(2E)-N-(2-Hydroxypropyl)-3-Phenylprop-2-Enamide (KM-568): A Novel Cinnamamide Derivative with Anticonvulsant Activity in Animal Models of Seizures and Epilepsy” (International Journal of Molecular Sciences, 2020).
# Legend:
# [1] = test system: C57/Bl6 mice; assay: Mesial temporal lobe epilepsy model (MTLE); format: in vivo; settings: 114 mg/kg i.p., recording period 20–40 min
# Description: Adult male C57/Bl6 mice were placed in a stereotactic frame, injected with kainate (1 nmol/100 nL) and implanted with 1 bipolar electrode in the dorsal hippocampus. The animals were then allowed to recover for four weeks. Four animals chosen for tests were intraperitoneally injected with KM-568 at 114 mg/kg (ED50 obtained in 6-Hz 44 mA test). Digital EEG recordings were performed on freely moving animals for 20 min pre-injection (reference period) and from 20 to 40 min after injection (10 min before and 10 min after peak time of effect in a 6-Hz 44 mA test). Animals are used as their own controls. In the testing periods, spontaneous recurrent hippocampal paroxysmal discharges (HPD) were counted.
# [2] = Ames microplate format (MPF) assay, TA1535; settings: Salmonella typhimurium, Salmonella typhimurium TA1535
# From the text: The Ames microplate format (MPF) mutagenicity assay (Xenometrix, Allschwil, Switzerland) was used to test KM-568 mutagenicity. Growth, exposure, and indicator media, positive control chemicals, and four Salmonella typhimurium strains TA98, TA100, TA1535 and TA1537 were included in the kit. TA100 and TA1535 strains detect base substitution mutations, whereas TA98 and TA1537 indicate frameshift mutations. The strains of bacteria included in a kit are in compliance with the Organization for Economic Cooperation and Development (OECD) 471 Guideline for Testing of Chemicals.
# The assay is a liquid microplate modification of the traditional Salmonella test. During the procedure, bacteria are exposed to different concentrations of a test compound for 90 min in a medium containing sufficient histidine to support cell divisions. Then, the cultures are diluted in a pH indicator medium lacking histidine and aliquoted into 48 wells of a 384-well plate. Within 2 days, bacteria that have undergone reversion to amino acid prototrophy will form colonies. Products of bacteria metabolism reduce pH of the medium, changing the color of wells from purple to yellow.
# The test procedure provided by Xenometrix and described in detail elsewhere was followed. Bacterial strains were grown overnight (14–16 h) in exposure medium in a shaker incubator and then exposed to KM-568 in 24-well plates for 90 min at 37 °C with agitation. Final KM-568 concentrations in the assay were 0.1, 0.2, and 0.5 mM. After preincubation, the cultures were diluted in the indicator medium and the contents of each 24-well culture were transferred to 48 wells on a 384-well plate and incubated further for 48 h at 37 °C without agitation. After the exposure, the number of wells containing bacteria was scored for yellow wells. […] Pure DMSO was used as a negative control. All doses were performed in triplicate.
# The fold increase of revertants relative to the solvent control was determined by dividing the mean number of positive wells at each dose by the solvent control at baseline. The solvent control at baseline was calculated as the mean number of positive wells in the solvent control plus one standard deviation (SD). When an increase of more than twofold relative to the baseline at more than one dose with a dose–response was observed, the sample was classified as positive, whereas when no response > 2 times the baseline and no dose–response was stated, the sample was classified as negative.
# [3] = test system: rat cerebral cortex AMPA receptor; assay: AMPA receptor radioligand binding ([3H]AMPA); settings: 10 µM; agonist radioligand
# Description: In order to identify molecular mechanism of action, KM-568 was tested at 10 µM in three radioligand binding assays: rat cerebral cortex GABA receptor non-selective agonist radioligand, AMPA (α-amino-3-hydroxy-5-methyl-4-isoxazolepropionic acid) receptor agonist radioligand, and NMDA (N-methyl-D-aspartate) receptor antagonist radioligand as well as one functional assay involving a human recombinant TRPV1 receptor expressed in CHO cells (agonist and antagonist effects).
# Tests were performed by Eurofins Cerep (Eurofins CEREP SA, Celle-Lévescault, France) as a commercial service. In radioligand assays, rat cerebral cortex GABA receptor as well as rat cerebral cortex AMPA (α-amino-3-hydroxy-5-methyl-4-isoxazolepropionic acid) and NMDA (N-methyl-D-aspartate) receptors with 10 nM [^3H]GABA, 8 nM [^3H]AMPA, and 5 nM [^3H]CGP39653, respectively, were used. The results were detected by means of scintillation counting. In functional assays, a human recombinant TRPV1 receptor expressed in Chinese hamster ovary (CHO) cells with 1 µM capsaicin or 30 nM capsazepine were used. Fluorimetry was used as a detection method.
# [4] = test system: CF-1 mice; assay: Chemoconvulsant test, picrotoxin; format: in vivo; settings: 0.25 h; for Picrotoxin Results (protected/tested animals): i.p.
# Description: After 0.25 h, the subcutaneous injections of either bicuculine (2.7 mg/kg) or picrotoxin (2.5 mg/kg) were performed. The, animals were placed in isolation cages and observed for 30 min (in a bicuculine assay) or 45 min (in a picrotoxin assay) for the presence or absence of an episode of a clonic seizure.
# [5] = test system: LTG-resistant amygdala kindled Sprague–Dawley rats; assay: Lamotrigine (LTG) resistant amygdala kindled seizure model in rats; format: in vivo; settings: 0.25 h
# Description: Anesthetized male Sprague–Dawley rats (250–300 g) were surgically implanted with an electrode into the left amygdala. After a one-week recovery period, kindling was initiated. A suprathreshold stimulus (200 µA) was delivered daily until all animals display stage 4–5 seizures. Lamotrigine at 5 mg/kg i.p. was also administered daily during kindling acquisition. One week after all animals were kindled, the animals received a challenge dose of lamotrigine (30 mg/kg, i.p.) to confirm LTG-resistance. On the 4th day, compound KM-568 was administered i.p. at the doses 20, 40, and 80 mg/kg. Fifteen minutes after administration, rats were challenged with the kindling stimulus. Results were provided as seizure score (according to Racine scale, protection defined as less than 3) and after discharge duration (in sec).
# [6] = test system: mice; assay: Formalin test of hyperalgesia; format: in vivo; settings: 44 mg/kg i.p.; for Reduction of time of licking of the affected paw: not statistically significant; for AUC % Control: vs methylcellulose
# Description: 0.05% formalin was injected subdermal to the hindpaws of mice, which caused licking. In the tested group (n = 8), KM-568 was administered intraperitoneally 0.25 h prior to formalin at the dose of 44 mg/kg. In the control group, methylcellulose was used. Animals were then observed for the first 2 min of each 5 min for a total of 40 min. The cumulative duration of licking (in sec) during each 2-min recording period was measured for analysis across compound and vehicle-pretreated groups.
smiles,measurement,setting,value
"C[C@H](O)CNC(=O)/C=C/c1ccccc1 [KM-568, S(+)-(2E)-N-(2-hydroxypropyl)-3-phenylprop-2-enamide]","Effect (% of Baseline), HPD counts",[1],73.9 % of Baseline
same,Mean HPD Counts,[1],12.8
same,"fold induction at 90 min, 0.1 mM",[2],0.7
same,"fold induction at 90 min, 0.2 mM",[2],1.3
same,"fold induction at 90 min, 0.5 mM",[2],1.1
same,Effect in AMPA receptor radioligand binding assay,[3],No significant effects
same,ED50,"[4]; Mus musculus, ip, 95% confidence interval in parentheses",94.1 mg/kg
same,Picrotoxin Results (protected/tested animals),[4]; 70 mg/kg,1/8
same,Picrotoxin Results (protected/tested animals),[4]; 100 mg/kg,5/8
same,Picrotoxin Results (protected/tested animals),[4]; 130 mg/kg,7/8
same,ED50,"[5]; Rattus norvegicus, ip",58.6 mg/kg
same,Results (protected/tested animals; protection = Racine score <3),"[5]; i.p., 20 mg/kg",0/7
same,Seizure Duration ± SD,"[5]; i.p., 20 mg/kg",140 ± 17.55 s
same,Seizure Score ± SEM,"[5]; i.p., 20 mg/kg",5.0 ± 0.0
same,Results (protected/tested animals; protection = Racine score <3),"[5]; i.p., 40 mg/kg",2/7
same,Seizure Duration ± SD,"[5]; i.p., 40 mg/kg",94.71 ± 8.72 s
same,Seizure Score ± SEM,"[5]; i.p., 40 mg/kg",3.86 ± 0.74
same,Results (protected/tested animals; protection = Racine score <3),"[5]; i.p., 80 mg/kg",5/7
same,Seizure Duration ± SD,"[5]; i.p., 80 mg/kg",56.57 ± 12.34 s
same,Seizure Score ± SEM,"[5]; i.p., 80 mg/kg",2.86 ± 0.63
same,"ED50, lamotrigine-resistant amygdala kindled rat model",[5]; i.p.,58.69 (38.09–120.15) mg/kg
same,"AUC (total area under curve, time of licking)",[6]; acute phase,184.18
same,Reduction of time of licking of the affected paw,[6]; acute phase,24%
same,AUC % Control,[6]; acute phase,76.37 % Control
same,"AUC (total area under curve, time of licking)",[6]; inflammatory phase,556.81
same,Reduction of time of licking of the affected paw,[6]; inflammatory phase,32%
same,AUC % Control,[6]; inflammatory phase,67.96 % Control
